Assay results taken from patent US20030166516A1, “Methods of treating, preventing, or inhibiting inflammation with exumolide compounds” (priority 2001, published 2003).
Where a SMILES comes first, the peptide text is derived from it. [ ]: non-standard residue; d: D form. Hica(2S) = CC(C)C[C@H](O)C(=O)O; NMeL = CN[C@@H](CC(C)C)C(=O)O

How the values were obtained:
[1] = system: cell proliferation; assay: conventional [3H]-thymidine incorporation assays; type: cell-based
Source text: Thus, the present invention also provides a method of treating, preventing, or inhibiting inflammation or an inflammatory disease or disorder in a subject without inhibiting cell proliferation in the subject.

[2] = reported on isolation, Fenical et al. (1998) Tetrahed. Letts. 39:2463-2466; cited from earlier work
[3] = system: edema caused by phorbol 12-myristate 13-acetate (PMA) in mouse ear; assay: Inhibition of mouse ear edema (PMA mouse ear model); type: in vivo, mice; details: for inflammation caused by PMA (result in words): irritant phorbol 12-myristate 13-acetate (PMA)
Experimental: The efficacy of Exumolide compounds as an anti-inflammatory agent was established by the following assay. Exumolide A was topically applied in acetone to the inside pinnae of the ears of mice in a solution comprising an edema-causing irritant, phorbol 12-myristate 13-acetate (PMA). Specifically, 2 μg/ear of PMA alone or in combination with 50 μg/ear of Exumolide A was applied to the left ears (5 mice per treatment group) and acetone was applied to all right ears. After 3 hours, 20 minutes incubation, the mice were sacrificed, the ears removed and bores taken and weighed. Edema was measured by subtracting the weight of the right ear (acetone control) from the weight of the left ear (treated). Results were recorded as % decrease (inhibition) or % increase (potentiation) in edema relative to the PMA control group edema.

Structure (SMILES) | inhibition of cell proliferation [1] | antibiotic activity [2] | Edema (mg ± SEM) ([3]; 50 ug/ear topical in acetone with 2 μg/ear PMA, left minus right ear bore weight after 3 hours, 20 minutes) [mg] | inflammation caused by PMA (result in words) [3]
CC(C)C[C@@H]1OC(=O)[C@@H]2CCCN2C(=O)[C@H](Cc2ccccc2)NC(=O)[C@H](Cc2ccccc2)NC(=O)[C@H](CC(C)C)N(C)C(=O)[C@@H]2CCCN2C1=O [Exumolide A] (cyclo(FFP[Hica(2S)]P[NMeL])) | do not inhibit cell proliferation | exhibit antibiotic activity | 4.3 ± 1.0 | prevent or inhibit inflammation
CC(C)C[C@@H]1NC(=O)[C@@H]2CCCN2C(=O)[C@H](CC(C)C)OC(=O)[C@@H]2CCCN2C(=O)[C@H](Cc2ccccc2)NC(=O)[C@H](Cc2ccccc2)NC1=O [Exumolide B] (cyclo(FFP[Hica(2S)]PL)) | do not inhibit cell proliferation | exhibit antibiotic activity | – | prevent or inhibit inflammation
